US7138361B2, “Herbicidal heterocycles” (E. I. du Pont de Nemours and Company, priority 2000, dated 2006)

What was measured:
Type in all cases: in vivo
wild oat (Avena fatua) = experiment: Test B postemergence; conditions: Rate 125 g/ha, scale 0 to 100, 0 no effect, 100 complete control
Procedure, shortened: (§1)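 Preemergence: seeds planted and treated with test chemicals in non-phytotoxic solvent with surfactant; postemergence on plants 2–18 cm (1- to 4-leaf stage). Kept in greenhouse 13–15 days, then visually rated against controls on a 0 (no effect) to 100 (complete control) scale.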

[1] = tested on: lambsquarters (Chenopodium album); experiment: Test B postemergence; conditions: Rate 125 g/ha, scale 0 to 100, 0 no effect, 100 complete control
Procedure, shortened: as §1

corn (Zea mays) = experiment: Test B postemergence
Procedure, shortened: as §1

[2] = tested on: blackgrass (Alopecurus myosuroides); experiment: Test B postemergence
Procedure, shortened: as §1

[3] = tested on: velvetleaf (Abutilon theophrasti); experiment: Test B postemergence; conditions: Rate 125 g/ha, scale 0 to 100, 0 no effect, 100 complete control
Procedure, shortened: as §1

[4] = tested on: pigweed (Amaranthus retroflexus); experiment: Test B postemergence; conditions: Rate 125 g/ha, scale 0 to 100, 0 no effect, 100 complete control
Procedure, shortened: as §1

[5] = tested on: giant foxtail (Setaria faberii); experiment: Test B postemergence; conditions: Rate 125 g/ha, scale 0 to 100, 0 no effect, 100 complete control
Procedure, shortened: as §1

[6] = tested on: cocklebur (Xanthium strumarium); experiment: Test B postemergence
Procedure, shortened: as §1

[7] = tested on: wheat (Triticum aestivum); experiment: Test B postemergence; conditions: Rate 125 g/ha, scale 0 to 100, 0 no effect, 100 complete control
Procedure, shortened: as §1

[8] = tested on: crabgrass (Digitaria sanguinalis); experiment: Test B postemergence; conditions: Rate 125 g/ha, scale 0 to 100, 0 no effect, 100 complete control
Procedure, shortened: as §1

[9] = tested on: Surinam grass (Brachiaria decumbens); experiment: Test B postemergence
Procedure, shortened: as §1

[10] = tested on: barnyardgrass (Echinochloa crus-galli); experiment: Test B postemergence
Procedure, shortened: as §1

[11] = tested on: morning glory (Ipomoea hederacea); experiment: Test B postemergence; conditions: Rate 125 g/ha, scale 0 to 100, 0 no effect, 100 complete control
Procedure, shortened: as §1

[12] = tested on: smallflower flatsedge (Cyperus difformis); experiment: Test C flooded paddy test; conditions: for Flatsedge plant response rating: Flooded Paddy, scale 0 to 100, 0 no effect, 100 complete control; for Plant response rating, Flatsedge: flooded paddy test, scale 0 to 100 (0 no effect, 100 complete control)
Procedure, shortened: (§2)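 Visually assessed vs untreated controls 12–14 d post-treatment (greenhouse). Flooded paddy plants were at the 2-leaf stage; scale 0 = no effect, 100 = complete control.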

rice (Oryza saliva) = experiment: Test C flooded paddy test; conditions: for Rice plant response rating: Flooded Paddy, scale 0 to 100, 0 no effect, 100 complete control; for Plant response rating, Rice: flooded paddy test, scale 0 to 100 (0 no effect, 100 complete control)
Procedure, shortened: as §2

[13] = tested on: barnyardgrass (Echinochloa crus-galli); experiment: Test C flooded paddy test; conditions: for Barnyardgrass plant response rating: Flooded Paddy, scale 0 to 100, 0 no effect, 100 complete control; for Plant response rating, Barnyardgrass: flooded paddy test, scale 0 to 100 (0 no effect, 100 complete control)
Procedure, shortened: as §2

[14] = tested on: duck salad (Heteranthera limosa); experiment: Test C flooded paddy test; conditions: for Ducksalad plant response rating: Flooded Paddy, scale 0 to 100, 0 no effect, 100 complete control
Procedure, shortened: as §2

Sunflower [15] = experiment: Test C preemergence; conditions: Rate 62 g/ha, scale 0 to 100
Sunflower [16] = experiment: Test C preemergence; conditions: Rate 250 g/ha, scale 0 to 100, 0 no effect, 100 complete control
Sunflower [17] = experiment: Test C preemergence; conditions: Rate 125 g/ha; scale 0 to 100, 0 no effect, 100 complete control
[18] = tested on: common ragweed (Ambrosia elatior); experiment: Test C preemergence; conditions: preemergence
Procedure, shortened: (§3)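 Seeds are planted and treated before emergence; for the postemergence test, plants at 1- to 4-leaf stage (2–18 cm) receive the same formulation, a solvent blend containing surfactant. Plants stay in the greenhouse 12–14 days, then response is scored visually from 0 (none) to 100 (complete control).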

[19] = tested on: Surinam grass (Brachiaria decumbens); experiment: Test C preemergence
Procedure, shortened: as §3

[20] = Rate 125 g/ha, scale 0 to 100, 0 no effect, 100 complete control
[21] = Rate 500 g/ha, scale 0 to 100, 0 is no effect, 100 is complete control, 13 to 15 days

Compound: CCC(CC)c1ccn(C2CCN(c3ccc(Cl)c(OC)c3)C2=O)n1 (stereo not shown) [Compound 118]
- Plant response rating, Wild Oat (wild oat (Avena fatua)): 30
- Plant response rating, Lambsquarters [1]: 90
- Plant response rating, Corn (corn (Zea mays); [20]): 20
- Plant response rating, Corn (corn (Zea mays); [21]): 20
- Plant response rating, Blackgrass [2, 20]: 0
- Plant response rating, Blackgrass [2, 21]: 0
- Plant response rating, Velvetleaf [3]: 40
- Plant response rating, Pigweed [4]: 70
- Plant response rating, Foxtail, Giant [5]: 0
- Plant response rating, Cocklebur [6, 20]: 60
- Plant response rating, Cocklebur [6, 21]: 100
- Plant response rating, Wheat [7]: 20
- Plant response rating, Crabgrass [8]: 40
- Plant response rating, Surinam grass [9, 20]: 30
- Plant response rating, Surinam grass [9, 21]: 40
- Plant response rating, Barnyardgrass [10, 20]: 0
- Plant response rating, Barnyardgrass [10, 21]: 90
- Plant response rating, Morningglory [11]: 40
- Flatsedge plant response rating ([12]; Rate 250 g/ha): 100
- Flatsedge plant response rating ([12]; Rate 500 g/ha): 100
- Plant response rating, Flatsedge ([12]; Rate 62 g/ha): 0
- Plant response rating, Flatsedge ([12]; Rate 125 g/ha): 100
- Rice plant response rating (rice (Oryza saliva); Rate 250 g/ha): 20
- Rice plant response rating (rice (Oryza saliva); Rate 500 g/ha): 30
- Plant response rating, Rice (rice (Oryza saliva); Rate 62 g/ha): 0
- Plant response rating, Rice (rice (Oryza saliva); Rate 125 g/ha): 0
- Barnyardgrass plant response rating ([13]; Rate 250 g/ha): 100
- Barnyardgrass plant response rating ([13]; Rate 500 g/ha): 100
- Plant response rating, Barnyardgrass ([13]; Rate 62 g/ha): 50
- Plant response rating, Barnyardgrass ([13]; Rate 125 g/ha): 60
- Ducksalad plant response rating ([14]; Rate 250 g/ha): 100
- Ducksalad plant response rating ([14]; Rate 500 g/ha): 100
- Plant response rating, Ducksalad ([14]; flooded paddy test, Rate 125 g/ha, scale 0 to 100 (0 no effect, 100 complete control)): 60
- Plant response rating, Sunflower (Sunflower [15]): 0
- Plant response rating, Sunflower (Sunflower [16]): 60
- Plant response rating, Sunflower (Sunflower [17]): 50
- Plant response rating, Ragweed, Common ([18]; Rate 62 g/ha, scale 0 to 100): 60
- Plant response rating (0 to 100), Ragweed, Common ([18]; Rate 500 g/ha, visual evaluation after 12 to 14 days): 100
- Plant response rating, Ragweed, Common ([18]; Rate 250 g/ha, scale 0 to 100, 0 no effect, 100 complete control): 80
- Plant response rating, Surinam grass [19, 20]: 10
- Plant response rating, Surinam grass ([19]; preemergence, Rate 62 g/ha, scale 0 to 100): 0
- Plant response rating (0 to 100), Surinam grass ([19]; preemergence, Rate 500 g/ha, visual evaluation after 12 to 14 days): 50
- Plant response rating, Surinam grass ([19]; preemergence, Rate 250 g/ha, scale 0 to 100, 0 no effect, 100 complete control): 30
